Experimental data reported in article PMC12019328, “Discovery of an ApoE4-targeted small-molecule SirT1 enhancer for the treatment of Alzheimer’s disease” (Scientific Reports, 2025).
“Also recorded” adds a separate entry of the source.

Experiments:
[1] = test system: ApoE4-TR:5xFAD mice; experiment: Barnes maze testing in ApoE4-TR:5xFAD mice; assay type: in vivo; details: 20 mg/Kg BID oral, 56 days, vs vehicle
Method: The active (-) enantiomer, DDL-218, underwent efficacy testing in ApoE4-TR:5xFAD mice[27] that were 6-7.5 months old at the start of treatment. ApoE4-TR:5xFAD male and female mice received either 20 mg/Kg DDL-218 BID (~ 8- to10-hour interval; total daily dose of 40 mkd) on weekdays and a single 40 mg/Kg dose on weekends (n = 12) or vehicle-only (n = 11); 8 C57BL/6 mice received vehicle-only as behavioral controls. Dosing was by the oral route and by oral feeding using a pipette as previously described, not gavage, as it is safer for repeated oral dosing than gavage. The dose of 20 mg/kg BID (40 mkd) was selected based on findings from PK analysis and was the highest feasible in the formulation used for oral feeding (compound is first solubilized in water, then mixed strawberry syrup diluted in water, for a final vehicle that is 25% syrup and 75% water). The final concentration of DDL-218 was chosen to deliver 20 mg/Kg in a volume of 10–20 µL (adjusted to the weight of each mouse). […]
For the probe test of memory, 48 h after the last training, the escape hole is closed and the escape box removed. […] Analysis of latency over the course of training trials was performed using ANY-Maze Software (Wood Dale, IL) and probe data was calculated manually as the software excludes mice that […] the escape hole within 90 s; in manual scoring, they are assigned a 90 s latency.

[2] = test system: SirT1 mRNA in N2a-E4 cells; experiment: SirT1 mRNA in N2a-E4 cells (qRT-PCR); assay type: cell-based, murine; details: 5 µM, 24 h, normalized to GAPDH and DMSO
Method: Relative SirT1 mRNA and protein enhancement by racemate DDL-214 and enantiomers DDL-218 and − 219 was determined in murine neuroblastoma cells stably transfected with ApoE4 (N2a-E4)[25]. All test compounds in DMSO were prepared at 2x the final concentration in DMEM supplemented with 10% fetal bovine serum (FBS) and 1% pen-strep (PS) and 50 µL of each loaded into individual wells of a 96-well plate. Previously cultured N2a-E4 were then trypsinized, harvested, centrifuged, and counted; then 50 µL of cell suspension adjusted to 400 cells/µL was added to each well. The plate was then incubated at 37 °C, 5% CO2 for 48 h. Cells were treated with DDL-214, DDL-218, or DDL-219 at 5 µM final then incubated for 24 h. […]
Total RNA was isolated from cells or brain tissue (Qiagen RNEasy kit). Total RNA (0.5–1.0 µg) mRNA was then converted to cDNA (SuperScript™ III First-Strand Synthesis SuperMix kit; Thermo Fisher), and gene mRNA levels were measured using a gene-specific qRT-PCR Taqman assays (Thermo Fisher). Gene mRNA levels were normalized to GAPDH mRNA levels measured either in the same cDNA sample or in the same qPCR reaction using multiplexing of gene-of-interest/VIC and GAPDH/FAM, normalized by the delta-delta-Ct method.

CC(N)C(=O)OC(C)(C)Cc1ccncc1 (centres unmarked) [DDL-218]
latency to enter the escape hole, 48-hour post-training probe [1]: decrease in latency
SirT1 mRNA [2]: greatest increase; also recorded: significantly increased SirT1 mRNA
